Reference: the supplement of paper PMC10307832

What was measured:
Experiment in all cases: relative viability (nuclei count vs DMSO), 5 days (fraction); higher = more cells survive
AZ505 + Lapatinib = compound: C1CCC(CC1)N(CCNCCC2=C3C(=C(C=C2)O)NC(=O)CO3)C(=O)CCNCCC4=CC(=C(C=C4)Cl)Cl [AZ505] + CS(=O)(=O)CCNCc1ccc(-c2ccc3ncnc(Nc4ccc(OCc5cccc(F)c5)c(Cl)c4)c3c2)o1 [Lapatinib] (partner 2 µM)
Summary of the method: (§1)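 Lung cancer cell lines were pin-tool dosed in 1536-well plates on the day after seeding, with either a lone drug or a fixed anchor-drug dose plus five library-drug doses (not always all listed) in √10 steps. Nuclei were counted on 4× images after 5 days. Relative viability is the ratio of treated-well to vehicle-well nuclei counts, with each value a median of duplicate plates.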

AZ505 + Pictilisib = compound: C1CCC(CC1)N(CCNCCC2=C3C(=C(C=C2)O)NC(=O)CO3)C(=O)CCNCCC4=CC(=C(C=C4)Cl)Cl [AZ505] + CS(=O)(=O)N1CCN(Cc2cc3nc(-c4cccc5[nH]ncc45)nc(N4CCOCC4)c3s2)CC1 [Pictilisib] (partner 1 µM)
Summary of the method: as §1

Dactolisib + Lapatinib = compound: Cn1c(=O)n(-c2ccc(C(C)(C)C#N)cc2)c2c3cc(-c4cnc5ccccc5c4)ccc3ncc21 [Dactolisib] + CS(=O)(=O)CCNCc1ccc(-c2ccc3ncnc(Nc4ccc(OCc5cccc(F)c5)c(Cl)c4)c3c2)o1 [Lapatinib] (partner 2 µM)
Summary of the method: as §1

Dactolisib + Alpelisib = compound: Cn1c(=O)n(-c2ccc(C(C)(C)C#N)cc2)c2c3cc(-c4cnc5ccccc5c4)ccc3ncc21 [Dactolisib] + Cc1nc(NC(=O)N2CCC[C@H]2C(N)=O)sc1-c1ccnc(C(C)(C)C(F)(F)F)c1 [Alpelisib] (partner 2 µM)
Summary of the method: as §1

## NCI-H1395
AZ505 + Lapatinib; first compound 0.08 µM
  relative viability: 0.949
AZ505 + Lapatinib; first compound 0.253 µM
  relative viability: 0.952
AZ505 + Lapatinib; first compound 0.8 µM
  relative viability: 0.911
AZ505 + Lapatinib; first compound 2.53 µM
  relative viability: 1.08
AZ505 + Lapatinib; first compound 8 µM
  relative viability: 0.992
AZ505 + Pictilisib; first compound 0.08 µM
  relative viability: 0.704
AZ505 + Pictilisib; first compound 0.253 µM
  relative viability: 0.563
AZ505 + Pictilisib; first compound 0.8 µM
  relative viability: 0.512
AZ505 + Pictilisib; first compound 2.53 µM
  relative viability: 0.635
AZ505 + Pictilisib; first compound 8 µM
  relative viability: 0.698
Dactolisib + Lapatinib; first compound 0.002 µM
  relative viability: 1
Dactolisib + Lapatinib; first compound 0.006325 µM
  relative viability: 0.918
Dactolisib + Lapatinib; first compound 0.02 µM
  relative viability: 0.966
Dactolisib + Lapatinib; first compound 0.06325 µM
  relative viability: 0.708
Dactolisib + Lapatinib; first compound 0.2 µM
  relative viability: 0.545
Dactolisib + Alpelisib; first compound 0.002 µM
  relative viability: 0.863
Dactolisib + Alpelisib; first compound 0.006325 µM
  relative viability: 0.757
Dactolisib + Alpelisib; first compound 0.02 µM
  relative viability: 1.23
Dactolisib + Alpelisib; first compound 0.06325 µM
  relative viability: 0.602
Dactolisib + Alpelisib; first compound 0.2 µM
  relative viability: 0.511

## SK-LU-1
AZ505 + Lapatinib; first compound 0.08 µM
  relative viability: 0.477
AZ505 + Lapatinib; first compound 0.253 µM
  relative viability: 0.651
AZ505 + Lapatinib; first compound 0.8 µM
  relative viability: 0.578
AZ505 + Lapatinib; first compound 2.53 µM
  relative viability: 0.537
AZ505 + Lapatinib; first compound 8 µM
  relative viability: 0.712
AZ505 + Pictilisib; first compound 0.08 µM
  relative viability: 0.333
AZ505 + Pictilisib; first compound 0.253 µM
  relative viability: 0.419
AZ505 + Pictilisib; first compound 0.8 µM
  relative viability: 0.332
AZ505 + Pictilisib; first compound 2.53 µM
  relative viability: 0.323
AZ505 + Pictilisib; first compound 8 µM
  relative viability: 0.435
Dactolisib + Lapatinib; first compound 0.002 µM
  relative viability: 0.857
Dactolisib + Lapatinib; first compound 0.006325 µM
  relative viability: 0.782
Dactolisib + Lapatinib; first compound 0.02 µM
  relative viability: 0.728
Dactolisib + Lapatinib; first compound 0.06325 µM
  relative viability: 0.509
Dactolisib + Lapatinib; first compound 0.2 µM
  relative viability: 0.27
Dactolisib + Alpelisib; first compound 0.002 µM
  relative viability: 1.03
Dactolisib + Alpelisib; first compound 0.006325 µM
  relative viability: 0.94
Dactolisib + Alpelisib; first compound 0.02 µM
  relative viability: 0.779
Dactolisib + Alpelisib; first compound 0.06325 µM
  relative viability: 0.363
Dactolisib + Alpelisib; first compound 0.2 µM
  relative viability: 0.276

## LU99A
AZ505 + Lapatinib; first compound 0.08 µM
  relative viability: 0.915
AZ505 + Lapatinib; first compound 0.253 µM
  relative viability: 0.965
AZ505 + Lapatinib; first compound 0.8 µM
  relative viability: 0.931
AZ505 + Lapatinib; first compound 2.53 µM
  relative viability: 1.04
AZ505 + Lapatinib; first compound 8 µM
  relative viability: 1.01
AZ505 + Pictilisib; first compound 0.08 µM
  relative viability: 0.318
AZ505 + Pictilisib; first compound 0.253 µM
  relative viability: 0.327
AZ505 + Pictilisib; first compound 0.8 µM
  relative viability: 0.302
AZ505 + Pictilisib; first compound 2.53 µM
  relative viability: 0.354
AZ505 + Pictilisib; first compound 8 µM
  relative viability: 0.315
Dactolisib + Lapatinib; first compound 0.002 µM
  relative viability: 0.94
Dactolisib + Lapatinib; first compound 0.006325 µM
  relative viability: 0.828
Dactolisib + Lapatinib; first compound 0.02 µM
  relative viability: 0.516
Dactolisib + Lapatinib; first compound 0.06325 µM
  relative viability: 0.336
Dactolisib + Lapatinib; first compound 0.2 µM
  relative viability: 0.257
Dactolisib + Alpelisib; first compound 0.002 µM
  relative viability: 0.483
Dactolisib + Alpelisib; first compound 0.006325 µM
  relative viability: 0.333
Dactolisib + Alpelisib; first compound 0.02 µM
  relative viability: 0.273
Dactolisib + Alpelisib; first compound 0.06325 µM
  relative viability: 0.242
Dactolisib + Alpelisib; first compound 0.2 µM
  relative viability: 0.192

## NCI-H1355
AZ505 + Lapatinib; first compound 0.08 µM
  relative viability: 0.865
AZ505 + Lapatinib; first compound 0.253 µM
  relative viability: 0.944
AZ505 + Lapatinib; first compound 0.8 µM
  relative viability: 0.95
AZ505 + Lapatinib; first compound 2.53 µM
  relative viability: 0.855
AZ505 + Lapatinib; first compound 8 µM
  relative viability: 0.995
AZ505 + Pictilisib; first compound 0.08 µM
  relative viability: 0.409
AZ505 + Pictilisib; first compound 0.253 µM
  relative viability: 0.338
AZ505 + Pictilisib; first compound 0.8 µM
  relative viability: 0.428
AZ505 + Pictilisib; first compound 2.53 µM
  relative viability: 0.321
AZ505 + Pictilisib; first compound 8 µM
  relative viability: 0.445
Dactolisib + Lapatinib; first compound 0.002 µM
  relative viability: 1.02
Dactolisib + Lapatinib; first compound 0.006325 µM
  relative viability: 0.879
Dactolisib + Lapatinib; first compound 0.02 µM
  relative viability: 0.939
Dactolisib + Lapatinib; first compound 0.06325 µM
  relative viability: 0.521
Dactolisib + Lapatinib; first compound 0.2 µM
  relative viability: 0.388
Dactolisib + Alpelisib; first compound 0.002 µM
  relative viability: 0.941
Dactolisib + Alpelisib; first compound 0.006325 µM
  relative viability: 0.794
Dactolisib + Alpelisib; first compound 0.02 µM
  relative viability: 0.723
Dactolisib + Alpelisib; first compound 0.06325 µM
  relative viability: 0.385
Dactolisib + Alpelisib; first compound 0.2 µM
  relative viability: 0.255

## HCC-78
AZ505 + Lapatinib; first compound 0.253 µM
  relative viability: 0.643
AZ505 + Lapatinib; first compound 0.8 µM
  relative viability: 0.645
AZ505 + Lapatinib; first compound 2.53 µM
  relative viability: 1.2
AZ505 + Lapatinib; first compound 8 µM
  relative viability: 0.86
AZ505 + Pictilisib; first compound 0.253 µM
  relative viability: 0.219
AZ505 + Pictilisib; first compound 0.8 µM
  relative viability: 0.179
AZ505 + Pictilisib; first compound 2.53 µM
  relative viability: 0.264
AZ505 + Pictilisib; first compound 8 µM
  relative viability: 0.289
Dactolisib + Lapatinib; first compound 0.002 µM
  relative viability: 0.769
Dactolisib + Lapatinib; first compound 0.006325 µM
  relative viability: 0.753
Dactolisib + Lapatinib; first compound 0.02 µM
  relative viability: 0.612
Dactolisib + Lapatinib; first compound 0.06325 µM
  relative viability: 0.47
Dactolisib + Lapatinib; first compound 0.2 µM
  relative viability: 0.493
Dactolisib + Alpelisib; first compound 0.002 µM
  relative viability: 0.358
Dactolisib + Alpelisib; first compound 0.006325 µM
  relative viability: 0.33
Dactolisib + Alpelisib; first compound 0.02 µM
  relative viability: 0.282
Dactolisib + Alpelisib; first compound 0.06325 µM
  relative viability: 0.247
Dactolisib + Alpelisib; first compound 0.2 µM
  relative viability: 0.198

## NCI-H1563
AZ505 + Lapatinib; first compound 0.08 µM
  relative viability: 0.836
AZ505 + Lapatinib; first compound 0.253 µM
  relative viability: 0.882
AZ505 + Lapatinib; first compound 0.8 µM
  relative viability: 0.998
AZ505 + Lapatinib; first compound 2.53 µM
  relative viability: 0.865
AZ505 + Lapatinib; first compound 8 µM
  relative viability: 0.905
AZ505 + Pictilisib; first compound 0.08 µM
  relative viability: 0.612
AZ505 + Pictilisib; first compound 0.253 µM
  relative viability: 0.62
AZ505 + Pictilisib; first compound 0.8 µM
  relative viability: 0.695
AZ505 + Pictilisib; first compound 2.53 µM
  relative viability: 0.595
AZ505 + Pictilisib; first compound 8 µM
  relative viability: 0.609
Dactolisib + Lapatinib; first compound 0.002 µM
  relative viability: 0.939
Dactolisib + Lapatinib; first compound 0.006325 µM
  relative viability: 0.892
Dactolisib + Lapatinib; first compound 0.02 µM
  relative viability: 0.816
Dactolisib + Lapatinib; first compound 0.06325 µM
  relative viability: 0.72
Dactolisib + Lapatinib; first compound 0.2 µM
  relative viability: 0.582
Dactolisib + Alpelisib; first compound 0.002 µM
  relative viability: 0.851
Dactolisib + Alpelisib; first compound 0.006325 µM
  relative viability: 0.86
Dactolisib + Alpelisib; first compound 0.02 µM
  relative viability: 0.706
Dactolisib + Alpelisib; first compound 0.06325 µM
  relative viability: 0.605
Dactolisib + Alpelisib; first compound 0.2 µM
  relative viability: 0.588

## HCC-15
AZ505 + Lapatinib; first compound 0.08 µM
  relative viability: 0.741
AZ505 + Lapatinib; first compound 0.253 µM
  relative viability: 0.809
AZ505 + Lapatinib; first compound 0.8 µM
  relative viability: 0.861
AZ505 + Lapatinib; first compound 2.53 µM
  relative viability: 0.805
AZ505 + Lapatinib; first compound 8 µM
  relative viability: 0.871
AZ505 + Pictilisib; first compound 0.08 µM
  relative viability: 0.658
AZ505 + Pictilisib; first compound 0.253 µM
  relative viability: 0.657
AZ505 + Pictilisib; first compound 0.8 µM
  relative viability: 0.712
AZ505 + Pictilisib; first compound 2.53 µM
  relative viability: 0.462
AZ505 + Pictilisib; first compound 8 µM
  relative viability: 0.71
Dactolisib + Lapatinib; first compound 0.002 µM
  relative viability: 0.752
Dactolisib + Lapatinib; first compound 0.006325 µM
  relative viability: 0.884
Dactolisib + Lapatinib; first compound 0.02 µM
  relative viability: 0.755
Dactolisib + Lapatinib; first compound 0.06325 µM
  relative viability: 0.594
Dactolisib + Lapatinib; first compound 0.2 µM
  relative viability: 0.367
Dactolisib + Alpelisib; first compound 0.002 µM
  relative viability: 0.941
Dactolisib + Alpelisib; first compound 0.006325 µM
  relative viability: 0.832
Dactolisib + Alpelisib; first compound 0.02 µM
  relative viability: 0.874
Dactolisib + Alpelisib; first compound 0.06325 µM
  relative viability: 0.417
Dactolisib + Alpelisib; first compound 0.2 µM
  relative viability: 0.38
